“Also recorded” adds a separate entry of the source.
Tests used:
[1] = system: microtubules in HT-29 cells; assay: Microtubule staining (acetylated tubulin) in HT-29 cells; assay type: cell-based, human; conditions: pretreatment before gp120
Protocol: To examine the microtubules, HT-29 cells were treated with 10 nM gp120CM235 or 50 pM gp120IIIB, then fixed one hour later in 4 g/100 ml paraformaldehyde PBS, then stained with mouse anti acetylated tubulin (5 μg/ml, Sigma) by a method similar to that given above. Some cells were pretreated with 50 μg/ml antiBob37 overnight, 1 μg/ml pertussis toxin overnight, or 4.6 μg/ml U73122 for one hour before the gp120 was added. Untreated cells were also stained.
Similarly treated undifferentiated HT-29 cells (except that Fluo-4 was not added) were fixed in paraformaldehyde phosphate buffered saline one hour after gp120 treatment.

[2] = system: gp120-induced calcium signaling in HT-29 cells; assay: Inhibition of gp120-induced calcium signaling in HT-29 cells; assay type: cell-based, human; conditions: pretreatment
Protocol: (§1) Calcium studies were done on HT-29 cells and Ghost (3) cells loaded with Fluo 4. The cells were placed in Locke's buffer containing 5 μg/ml Fluo 4 AM ester (Molecular Probes) for 20 to 30 minutes, then in Locke's buffer for an additional 30 minutes before testing. Various concentrations of gp120IIIB (X4 trophic), gp120CM235 (R5 trophic), gp120mN (X4 trophic), gp12093TH975 (nonsyncytium-inducing primary isolate from an asymptomatic subject, trophism undetermined but likely R5), and gp120SF2 (X4R5 trophic), ranging from 10 nM to less than 1 pM, were added in Locke's buffer.^6 The gp120 proteins were obtained from the AIDS Research Reagent Referral Program. Some HT-29 cells were given one of the following pretreatments: 50 μg/ml anti-Bob37 overnight, 1 μg/ml pertussis toxin overnight, or 4.6 μg/ml U73122 for one hour. With the HT-29 cells only, similar tests were also performed with SDF-1, MIP-1α, MIP-1β, and RANTES rather than gp120. The cells were visualized every 4 seconds in a confocal microscope, using 488 nm argon laser excitation and detection filters appropriate for fluorescein-like dyes.
Blocking antibody experiments were done with HT-29 cells (monitoring calcium flux, microtubule loss, or transepithelial resistance), with Ghost (3) Bob cells (monitoring calcium flux) and peripheral blood mononuclear cells (monitoring calcium flux and HIV infection). Specifics of these protocols and the specific results are given herein. […] Antibody concentrations of 40 to 50 micrograms/ml overnight were needed for maximal effect.
(§2) For the first two or three days after plating, gp120 induces an immediate (within 4 seconds) calcium flux in undifferentiated HT-29 cells. The cells had previously been loaded with Fluo-4 AM ester (Molecular Probes, Eugene Oreg.) 5 micrograms/ml in the presence of Pleuronic F-127 0.02% in Locke's buffer for 30 minutes, then incubated at room temperature for an additional 30 minutes. Gp120IIIB was added while the cells were on an inverted confocal microscope using a 488 nm argon laser, with detection filters suitable for fluorescein-like dyes. […]

HT-29 cells = assay: Calcium signaling in HT-29 cells (Fluo 4, confocal microscope); assay type: cell-based, human
Protocol: HT-29 cells (from ATCC) were grown in DMEM-F12 with 10% bovine calf serum, and were used 24-48 hours after plating. The Ghost (3) cells were obtained from the AIDS Research and Reference Reagent Program, and were grown DMEM with 10% bovine calf serum supplemented with 500 μg/ml G418, 100 μg/ml hygromycin, and 1 μg/ml puromycin.^27 These cells were used 24 to 96 hours after plating.
as §1, §2

HT-29-D4 cells = assay: Transepithelial resistance (TEER) of differentiated HT-29-D4 cells; assay type: cell-based, human; conditions: electrophysiological medium
[3] = GalCer-gp120 interactions at the air-water interface (surface pressure); assay type: binding; conditions: gp120 5 nM in aqueous subphase
Protocol: A monomolecular film of GalCer was prepared at the air-water interface and gp120 purified from either IIIB (full squares), SEN (open circles) or 89.6 (full circles) isolates was added in the aqueous subphase at a concentration of 5 nM. The kinetics of the surface pressure increase induced by the viral glycoproteins are shown.
Galactosylceramide with an α-hydroxylated fatty acid (referred to as GalCer throughout this study) was either prepared from bovine brain (Sigma) or purified from HT-29-D4 membrane rafts (Fantini et al., 2000a). The surface pressure was measured with a microtensiometer (Kibron Inc., Finland) specially designed for studying protein-lipid interactions (Fantini et al., 2000a). The experiments were carried at 25° C. out in a laboratory equipped with a filtered air supply. A solution of GalCer was prepared extemporaneously in hexane:chloroform:methanol, 11:5:4 (v:v:v) at a concentration of 1 mg/ml. The lipid was carefully spread onto the meniscus of a pure water subphase (800 μl). The proteic ligand (GPR15/Bob peptides or HIV-1 gp120) was injected into the subphase with a 10 μl Hamilton syringe. The surface pressure was continuously measured as a function of time until reaching equilibrium corresponding to the maximal surface presure increase (Δπmax) expressed in mN/m.
In a recent study, it was shown that the interaction between GalCer and gp120 purified from HIV-1(IIIB) was very efficient, whereas gp120s from 89.6 and SEN isolates interacted very weakly (Hammache et al., 1998). The kinetics of this interaction are an important physicochemical parameter allowing the direct comparison of GalCer recognition by various gp120s. In the experiment shown in FIG. 11, gp120 purified from IIIB, SEN, or 89.6 was injected underneath a monomolecular film of GalCer at the air-water interface. The GalCer film mimics the topology of a GalCer raft as it is organized in the external leaflet of the plasma membrane. For this reason, the Langmuir film balance technique is one of the most sensitive and reliable for studying protein-glycolipid interactions (Maggio et al., 1994). […] The surface increase indicates a condensing effect of the gp120 on the lipidic film due to its interaction with GalCer molecules (Hammache et al., 1998). […] At this time however, the level of interaction indicated by the absolute increase of the surface pressure was identical to the one of gp120(IIIB). […] The GalCer-binding capacity of gp120(SEN) was reevaluated and shown to occur much more slowly, but not less efficiently, than of gp120(IIIB).

CXCR4 = target: T1, CXCR4 (Homo sapiens, UniProt P61073); assay: gp120-induced calcium flux, Ghost (3) cells transfected with CXCR4; assay type: cell-based; parameters: key: — = no calcium flux seen at any dilution tested; conditions: Ghost (3) CXCR4 cells
T1 construct: host or cells: Ghost (3) cells (human osteosarcoma, CD4+)
Protocol: as §1
(§3) Human osteosarcoma cell lines were transfected to express CD4, one or another of the HIV coreceptors, and a Green Fluorescent Protein reporter for active HIV infection, for the purpose of testing which of the known coreceptors was used to induce HIV infection by a given HIV strain (Morner A. J Virol 73:2343-9, 1999 and Deng K Nature 388:296-300, 1997). These cells were obtained from the AIDS Research and Reference Reagent Program, courtesy of Dr. Vineet KewalRamani and Dr. Dan Littman. These cells were grown in DMEM with 10% bovine calf serum supplemented with 0.5 mg/ml G418, 0.1 mg/ml hygromycin, and 1 microgram/ml puromycin, and were used at low passage number (less than 10). We have discovered that these cell lines are also activated by gp120 of certain viral strains, inducing a calcium flux in these cells.
(§4) Within 4 days of plating, coreceptor-transfected Ghost (3) cells (as well as the parent cell line not transfected to express any HIV coreceptors as a control) were put in Locke's medium, then treated with Fluo-4 (5 micrograms/ml for 30 minutes at 37° C.). After an additional 30 minute incubation in Locke's buffer at room temperature, the cells were examined in a confocal microscope while gp120 of various viral strains was added, and the cells were examined at 4 second intervals to look for a gp120-induced calcium flux. The results are given in the following table, expressed as the minimal concentration of gp120 resulting in a significant calcium flux. “−” means that no reproducible calcium flux was observed. “ND” means that the gp120 of that viral strain was not tested with the stated coreceptor. […]

Bob = target: T2, Bob (Homo sapiens, UniProt P49685); assay: gp120-induced calcium flux, Ghost (3) cells transfected with Bob (Fluo-4); assay type: cell-based; parameters: key to minimal concentration of gp120 resulting in a significant calcium flux: — = no calcium flux seen at any dilution tested
T2 construct: host or cells: Ghost (3) cells (human osteosarcoma, also transfected with CD4 and a GFP reporter)
T2 sequence (P49685 1-360): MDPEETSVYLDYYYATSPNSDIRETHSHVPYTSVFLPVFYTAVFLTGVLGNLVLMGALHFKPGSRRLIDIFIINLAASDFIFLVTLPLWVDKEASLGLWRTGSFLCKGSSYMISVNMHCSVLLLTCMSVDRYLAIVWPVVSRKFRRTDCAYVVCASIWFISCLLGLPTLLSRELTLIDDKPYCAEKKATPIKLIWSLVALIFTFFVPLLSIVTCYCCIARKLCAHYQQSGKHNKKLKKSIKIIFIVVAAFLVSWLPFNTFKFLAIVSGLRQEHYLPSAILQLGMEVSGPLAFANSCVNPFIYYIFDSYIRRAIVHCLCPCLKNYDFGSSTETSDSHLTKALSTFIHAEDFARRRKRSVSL
Protocol: as §1, §3
Within 4 days of plating, coreceptor-transfected Ghost (3) cells (as well as the parent cell line not transfected to express any HIV coreceptors as a control) were put in Locke's medium, then treated with Fluo-4 (5 micrograms/ml for 30 minutes at 37° C.). After an additional 30 minute incubation in Locke's buffer at room temperature, the cells were examined in a confocal microscope while gp120 of various viral strains was added, and the cells were examined at 4 second intervals to look for a gp120-induced calcium flux. The results are given in the following table, expressed as the minimal concentration of gp120 resulting in a significant calcium flux. “−” means that no reproducible calcium flux was observed. “ND” means that the gp120 of that viral strain was not tested with the stated coreceptor.
These cells were treated with serial dilutions (100 or 250 nM to at least 1 pM, or even less if calcium fluxes were noted) of gp120. Gp120s from each of four HIV-1 strains: IIIB, CM235, SF2, and […] were used. Listed is the greatest dilution which induced a significant, reproducible calcium flux. The parental line is known to express CXCR4 at very low levels. Those results indicated by an asterisk are thought to represent this artifact.

[4] = system: Ghost (3) parental cell line; assay: gp120-induced calcium flux, Ghost (3) parental cell line; assay type: cell-based, human; parameters: key: — = no calcium flux seen at any dilution tested; conditions: Ghost (3) parental line
Protocol: as §1, §3, §4

CCR5 = target: T3, CCR5 (Homo sapiens, UniProt P51681); assay: gp120-induced calcium flux, Ghost (3) cells transfected with CCR5; assay type: cell-based; parameters: key: — = no calcium flux seen at any dilution tested; conditions: Ghost (3) CCR5 cells
T3 construct: host or cells: Ghost (3) cells (human osteosarcoma, CD4+)
Protocol: as §1, §3, §4

T1 sequence (P61073 whole entry): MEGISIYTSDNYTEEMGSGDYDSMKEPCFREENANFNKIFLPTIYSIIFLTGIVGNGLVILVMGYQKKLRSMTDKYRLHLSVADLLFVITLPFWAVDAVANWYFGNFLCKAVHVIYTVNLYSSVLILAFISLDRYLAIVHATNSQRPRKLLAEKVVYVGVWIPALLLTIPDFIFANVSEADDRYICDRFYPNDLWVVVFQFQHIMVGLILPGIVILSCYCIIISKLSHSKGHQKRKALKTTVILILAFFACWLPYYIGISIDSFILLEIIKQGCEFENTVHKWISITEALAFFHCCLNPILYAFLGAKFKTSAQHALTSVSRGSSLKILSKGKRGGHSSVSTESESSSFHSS
T3 sequence (P51681 whole entry): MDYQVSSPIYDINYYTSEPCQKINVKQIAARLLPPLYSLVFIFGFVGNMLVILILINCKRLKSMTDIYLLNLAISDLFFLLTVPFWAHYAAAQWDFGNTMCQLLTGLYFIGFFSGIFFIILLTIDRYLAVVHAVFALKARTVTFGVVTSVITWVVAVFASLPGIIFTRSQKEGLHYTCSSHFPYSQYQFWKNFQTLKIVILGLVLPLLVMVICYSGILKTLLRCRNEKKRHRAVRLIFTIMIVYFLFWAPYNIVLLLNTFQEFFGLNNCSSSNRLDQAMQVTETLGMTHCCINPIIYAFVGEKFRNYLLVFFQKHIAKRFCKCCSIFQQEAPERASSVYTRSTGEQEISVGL

COc1ccc2c(c1)CC[C@@H]1[C@@H]2CC[C@]2(C)[C@@H](NCCCCCCN3C(=O)C=CC3=O)CC[C@@H]12 [U73122]
inhibition of gp120-induced microtubule loss [1]: inhibited and not
inhibition of gp120-induced calcium signaling, in words [2]: No significant gp120IIIB-induced calcium signaling; also recorded: inhibited

COc1ccc2c(c1)CC[C@@H]1[C@@H]2CC[C@]2(C)[C@@H](NCCCCCCN3C(=O)CCC3=O)CC[C@@H]12 [U73343]
inhibition of gp120-induced calcium signaling, in words [2]: no inhibitory effect and not

SDF-1: natural ligand of CXCR4 [reference compound]
calcium signaling in HT-29 cells, in words (HT-29 cells): substantial calcium signal; also recorded: induced similar calcium signaling

gp120(89.6): gp120 purified from primary isolate HIV-1(89.6)
TEER response, in words (HT-29-D4 cells): not observed
TEER response, in words (HT-29-D4 cells; listed as gp120 from 89.6): totally inactive
interaction with GalCer film, in words [3]: very little association with GalCer
maximal surface pressure increase relative to IIIB and SEN [3]: less than 50%

gp120MN: gp120 of HIV strain MN (X4 trophic)
minimal concentration of gp120 resulting in a significant calcium flux (CXCR4): —
minimal concentration of gp120 resulting in a significant calcium flux (Bob; Ghost (3) Bob cells, 100 or 250 nM to at least 1 pM): —
Bob activation / calcium signals in Bob-transfected Ghost (3) cells, in words (Bob; listed as MN): do not activate Bob; also recorded: did not cause calcium signals
minimal concentration of gp120 resulting in a significant calcium flux [4]: —
minimal concentration of gp120 resulting in a significant calcium flux (CCR5): —

pertussis toxin
inhibition of gp120-induced microtubule loss [1]: inhibited and not
inhibition of gp120-induced calcium signaling, in words [2]: No significant gp120IIIB-induced calcium signaling; also recorded: inhibited
